Key:
Assay type in all cases: physicochemical
[1] = Water content by Karl Fisher analysis on storage (Example 3)
Method: Water content (% w/w) by Karl Fisher analysis
(§1) Each test material was stored between 2-8*C prior to placing on stability. Each material was sub-divided into 900 mg aliquots, transferred to brown opaque HDPE plastic bottles and flushed with Argon prior to sealing. Sufficient samples were provided for each time point as well as spares for each storage condition. The samples were placed in appropriate incubators previously commissioned at storage conditions 25° C./60% RH, 40° C./75% RH and 60° C.
Water Content by Karl Fisher Analysis
Water content was determined in duplicate on an aliquot of equilibrated material (approximately 100 mg) using a Tritrino 720 KFS Titrator.

[2] = Stability indicating HPLC assay and related substances on storage (Example 3)
Method: Assay (% w/w) and related substances determination
as §1
Testing Procedures Test for Identity Content and Impurities
Testing was performed in duplicate (2×25 mg) in accordance with a stability indicating HPLC assay method. The assay results were reported as M6G as is, M6G as the anhydrous, solvent free material and the anhydrous solvent free material corrected for the salt form using the relevant conversion factor.

[3] = Colour of solution by visible spectrophotometry on storage (Example 3); settings: 5% w/v solution in water
Method: Colour of solution by UV spectrophotometry.
as §1
Colour by Visible Spectrophotometry
A 5% w/v solution of test material was prepared in water and the absorbance measured at 420 nm in a 1 cm silica cell using a Unicam UV4 Visible/UV spectrophotometer.

[4] = Visual appearance on storage (Example 3)
Method: as §1
The samples were stored for analysis according to the following table: […]

## CN1CCC23c4c5ccc(O)c4OC2C(OC2OC(C(=O)O)C(O)C(O)C2O)C=CC3C1C5.CN1CCC23c4c5ccc(O)c4OC2C(OC2OC(C(=O)O)C(O)C(O)C2O)C=CC3C1C5.O=C(O)C=CC(=O)O (stereo not drawn) [Morphine-6-glucuronide fumarate]
[1]; 1 month, 25° C./60% RH
  Moisture: 7.26 % w/w
[1]; 1 month, 40° C./75% RH
  Moisture: 7.94 % w/w
[1]; 1 month, 60° C.
  Moisture: 5.98 % w/w
[1]; 3 months, 25° C./60% RH
  Moisture: 8.00 % w/w
[1]; 3 months, 40° C./75% RH
  Moisture: 10.89 % w/w
[1]; Initial
  Moisture: 6.80 % w/w
[2]; 1 month, 25° C./60% RH
  Known Related Substances HN33177: 0.80%
  Known Related Substances HN75083: 0.03%
  M6G Assay, Anhydrous basis: 88.23 % w/w
  M6G Assay, As is basis: 81.96 % w/w
  M6G Assay, Corrected for the salt form: 99.32 % w/w
  Total Known: 0.83%
  Total Related Substances: 0.91%
  Total Unknown: 0.08%
[2]; 1 month, 40° C./75% RH
  Known Related Substances HN33177: 0.70%
  Known Related Substances HN67003: 0.58%
  Known Related Substances HN75076: 0.03%
  Known Related Substances HN75083: 0.02%
  Known Related Substances Morphine: 0.10%
  M6G Assay, Anhydrous basis: 84.17 % w/w
  M6G Assay, As is basis: 77.62 % w/w
  M6G Assay, Corrected for the salt form: 94.76 % w/w
  Total Known: 1.43%
  Total Related Substances: 2.60%
  Total Unknown: 1.17%
[2]; 1 month, 60° C.
  Known Related Substances HN33177: 0.62%
  Known Related Substances HN67003: 0.97%
  Known Related Substances HN75076: 0.06%
  Known Related Substances HN75083: 0.02%
  Known Related Substances Morphine: 0.24%
  M6G Assay, Anhydrous basis: 82.11 % w/w
  M6G Assay, As is basis: 77.33 % w/w
  M6G Assay, Corrected for the salt form: 92.44 % w/w
  Total Known: 1.91%
  Total Related Substances: 3.85%
  Total Unknown: 1.94%
[2]; 3 months, 25° C./60% RH
  Known Related Substances HN33177: 0.75%
  Known Related Substances HN67003: 0.26%
  Known Related Substances HN75083: 0.10%
  Known Related Substances Morphine: 0.07%
  M6G Assay, Anhydrous basis: 87.15 % w/w
  M6G Assay, As is basis: 81.20 % w/w
  M6G Assay, Corrected for the salt form: 98.11 % w/w
  Total Known: 1.18%
  Total Related Substances: 1.90%
  Total Unknown: 0.72%
[2]; 3 months, 40° C./75% RH
  Known Related Substances HN33177: 0.57%
  Known Related Substances HN67003: 1.56%
  Known Related Substances HN75076: 0.40%
  Known Related Substances Morphine: 0.45%
  M6G Assay, Anhydrous basis: 79.38 % w/w
  M6G Assay, As is basis: 71.64 % w/w
  M6G Assay, Corrected for the salt form: 89.37 % w/w
  Total Known: 2.98%
  Total Related Substances: 9.07%
  Total Unknown: 6.09%
  drop in assay compared to the initial values: around 10%
[2]; Initial
  Known Related Substances HN33177: 0.77%
  Known Related Substances HN67003: 0.04%
  Known Related Substances HN75083: 0.05%
  M6G Assay, Anhydrous basis: 89.44 % w/w
  M6G Assay, As is basis: 84.11 % w/w
  M6G Assay, Corrected for the salt form: 100.71 % w/w
  Total Known: 0.86%
  Total Related Substances: 0.95%
  Total Unknown: 0.09%
[3]; 1 month, 25° C./60% RH
  Colour: 0.034 Abs@420 nm
[3]; 1 month, 40° C./75% RH
  Colour: 0.264 Abs@420 nm
[3]; 1 month, 60° C.
  Colour: 0.794 Abs@420 nm
[3]; 3 months, 25° C./60% RH
  Colour: 0.141 Abs@420 nm
[3]; 3 months, 40° C./75% RH
  Colour: 1.008 Abs@420 nm
[3]; Initial
  Colour: 0.016 Abs@420 nm
[4]; 1 month, 25° C./60% RH
  Appearance: White crystalline powder
[4]; 1 month, 40° C./75% RH
  Appearance: Pale yellow crystalline powder
[4]; 1 month, 60° C.
  Appearance: Yellow crystalline powder
[4]; 3 months, 25° C./60% RH
  Appearance: Pale yellow crystalline powder
[4]; 3 months, 40° C./75% RH
  Appearance: Yellow crystalline powder
[4]; Initial
  Appearance: White crystalline powder

— patent US20060166900A1, “Salt of morphine-6-glucuronide” (CeNeS Limited, priority 2002, published 2006)
